In the test the target is Apolipoprotein(a) (Homo sapiens, UniProt P08519). Nature of the test: Methods of ELISA Assay on Screening Lp(a) Assembly Inhibition. The method, then: 1) Added 100 μL of capture antibody to each well of a pre-coated ELISA plate and incubated overnight at 25° C.2) Added 300 μL of washing solution to each well and washed 5 times for 1 min each time.3) Added 100 μL of blocking solution to each well and incubated at 25° C. for 2 h.4) Added 300 μL of washing solution to each well and washed 5 times for 1 min each time.5) Added 100 μL of sample to each well and incubated at 25° C. for 1 h.6) Added 300 μL of washing solution to each well and washed 5 times for 1 min each time.7) Added 100 μL of detection antibody to each well and incubated at 25° C. for 1 h.8) Added 300 μL of washing solution to each well and washed 5 times for 1 min each time.9) Added 100 μL substrate solution (Color Reagent A: Color Reagent B, 1:1) to each well and incubated for 20 min at 25° C. in the dark.10) Added […] of stop solution to each well, gently blowed and sucked several times with the pipette tip, and read within 5 min.
Chain of Apolipoprotein(a) (P08519 whole entry): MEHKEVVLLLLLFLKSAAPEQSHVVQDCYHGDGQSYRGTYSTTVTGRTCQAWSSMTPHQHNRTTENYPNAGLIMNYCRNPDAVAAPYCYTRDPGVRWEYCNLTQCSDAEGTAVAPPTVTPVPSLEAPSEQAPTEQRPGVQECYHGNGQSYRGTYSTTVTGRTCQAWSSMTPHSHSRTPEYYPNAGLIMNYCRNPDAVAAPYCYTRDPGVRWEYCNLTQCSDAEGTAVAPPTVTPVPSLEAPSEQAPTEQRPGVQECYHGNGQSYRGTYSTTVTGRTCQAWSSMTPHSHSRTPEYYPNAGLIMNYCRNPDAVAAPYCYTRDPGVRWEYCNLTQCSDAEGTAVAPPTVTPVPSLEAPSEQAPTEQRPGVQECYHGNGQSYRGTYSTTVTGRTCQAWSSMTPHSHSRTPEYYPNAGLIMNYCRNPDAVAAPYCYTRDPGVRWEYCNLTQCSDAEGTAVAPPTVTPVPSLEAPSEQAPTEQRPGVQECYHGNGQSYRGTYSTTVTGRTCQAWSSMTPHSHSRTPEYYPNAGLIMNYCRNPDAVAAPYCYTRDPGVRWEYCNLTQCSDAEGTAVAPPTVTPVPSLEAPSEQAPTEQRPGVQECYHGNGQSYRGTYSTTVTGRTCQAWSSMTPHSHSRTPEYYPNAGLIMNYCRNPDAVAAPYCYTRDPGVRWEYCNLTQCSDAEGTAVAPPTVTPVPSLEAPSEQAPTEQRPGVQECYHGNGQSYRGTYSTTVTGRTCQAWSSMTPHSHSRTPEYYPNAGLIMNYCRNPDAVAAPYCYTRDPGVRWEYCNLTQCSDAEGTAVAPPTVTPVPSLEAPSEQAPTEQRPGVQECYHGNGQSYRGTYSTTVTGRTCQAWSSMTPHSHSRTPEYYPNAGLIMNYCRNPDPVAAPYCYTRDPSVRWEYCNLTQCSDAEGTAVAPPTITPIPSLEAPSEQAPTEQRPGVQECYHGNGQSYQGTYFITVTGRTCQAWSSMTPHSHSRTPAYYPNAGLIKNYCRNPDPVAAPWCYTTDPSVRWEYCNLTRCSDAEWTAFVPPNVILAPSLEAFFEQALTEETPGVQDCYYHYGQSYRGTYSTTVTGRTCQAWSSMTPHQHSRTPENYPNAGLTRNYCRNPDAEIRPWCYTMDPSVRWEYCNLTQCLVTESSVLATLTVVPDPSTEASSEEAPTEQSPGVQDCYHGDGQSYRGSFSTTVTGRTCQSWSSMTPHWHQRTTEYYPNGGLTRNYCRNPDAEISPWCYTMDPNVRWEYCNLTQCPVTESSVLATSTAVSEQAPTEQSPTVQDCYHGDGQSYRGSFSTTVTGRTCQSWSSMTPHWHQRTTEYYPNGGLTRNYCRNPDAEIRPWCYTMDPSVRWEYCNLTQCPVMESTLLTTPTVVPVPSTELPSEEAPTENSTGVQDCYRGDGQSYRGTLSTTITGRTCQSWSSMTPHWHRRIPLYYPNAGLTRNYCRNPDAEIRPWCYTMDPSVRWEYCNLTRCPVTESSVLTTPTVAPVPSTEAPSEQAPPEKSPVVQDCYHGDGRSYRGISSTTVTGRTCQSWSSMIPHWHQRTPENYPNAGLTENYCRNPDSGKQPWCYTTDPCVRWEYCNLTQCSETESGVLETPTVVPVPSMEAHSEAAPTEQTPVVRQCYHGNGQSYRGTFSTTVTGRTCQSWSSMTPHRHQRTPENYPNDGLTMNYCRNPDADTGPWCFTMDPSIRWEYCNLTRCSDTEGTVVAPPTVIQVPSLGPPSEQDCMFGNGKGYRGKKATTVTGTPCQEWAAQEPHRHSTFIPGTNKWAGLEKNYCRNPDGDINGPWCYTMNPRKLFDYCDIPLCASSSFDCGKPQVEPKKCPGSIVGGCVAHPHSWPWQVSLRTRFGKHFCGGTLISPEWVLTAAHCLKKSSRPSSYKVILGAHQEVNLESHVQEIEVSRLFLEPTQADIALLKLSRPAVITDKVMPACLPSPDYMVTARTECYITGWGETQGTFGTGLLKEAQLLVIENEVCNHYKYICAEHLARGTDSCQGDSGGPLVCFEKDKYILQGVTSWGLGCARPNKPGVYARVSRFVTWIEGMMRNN

On to `O=C(O)[C@@H](Cc1cc2cc(CN(Cc3ccc4oc(C[C@H](C(=O)O)[C@H]5CCNC5)cc4c3)Cc3ccc4oc(C[C@H](C(=O)O)[C@H]5CCNC5)cc4c3)ccc2o1)[C@H]1CCNC1` [US20250179055, Compound 127], for which it took 0.9 nM to reach half-maximal inhibition (IC50).

The term IC50 denotes the concentration at which inhibition is half-maximal.

The record behind these values is BindingDB's records for patent US20250179055 (Innovstone Therapeutics, 2025).
